# Measured values: PMC8980233, “Differentiating the Neuropharmacological Properties of Nicotinic Acetylcholine Receptor-Activating Alkaloids” (Frontiers in Pharmacology, 2022)
# Entries after “also recorded” stand apart in the source; their conditions may differ.
# What was measured:
# [1] = 0.5 mg/kg; ref Petersen et al. (1984); cited from earlier work
# [2] = test system: norepinephrine release from hippocampal synaptosomes; test: In vitro [3H]norepinephrine release from crude hippocampal synaptosomes; assay type: biochemical, rat
# Procedure: In vitro neurotransmitter assays using crude synaptosome preparations were conducted by Gifford Biosciences Limited (Birmingham, UK) based on the previously described protocols ([Clarke and Reuben, 1996]; [Gifford et al., 2000]). In brief, male Sprague Dawley rats (200–225 g) were terminated by cervical dislocation followed by decapitation. The striatums or hippocampi were dissected and homogenized in ice-cold 0.32 M sucrose using a Dounce homogenizer. The homogenates were centrifuged at 100 x g for 5 min to pellet cell debris. The supernatants were collected and centrifuged at 17,000 x g for 10 min at 4°C to pellet crude synaptosomes. The pellets were resuspended in 5 ml Krebs buffer, pH 7.4 (in mM (pH 7.4): 120 NaCl, 3.3 KCl, 1.2 MgSO4, 1.3 CaCl2, 1.2 K2HPO4, 25 HEPES, 11 glucose, 0.01 ascorbic acid, 0.025 pargyline, and 0.1% BSA containing 2 μCi/ml [^3H]norepinephrine for hippocampal synaptosomes or 1 μCi/ml [^3H]dopamine for striatal synaptosomes and incubated for 15 min at 35°C with gentle shaking.
# The [^3H]norepinephrine- or [^3H]dopamine-treated crude synaptosomes were loaded onto closed filter chambers containing Whatman® Grade GF/C Glass Microfiber filters (Sigma-Aldrich, Merck KGaA, Darmstadt, Germany) and placed in a superfusion system. Preoxygenated Krebs buffer was perfused through the chambers at a rate of 1 ml/min at 37 °C using an 8-channel peristaltic pump. To ensure an even flow over the synaptosomal bed, trapped air bubbles were removed from the filters prior to collection of the fractions. After a superfusion period of 40 min, three basal fractions (1.5 ml/fraction) were collected first, followed by three fractions (1.5 ml/fraction) containing the test compound. Two additional fractions were collected in the presence of 30 mM KCl to depolarize the synaptosomes. A 0.4-ml aliquot of each fraction was then transferred to a counting plate, and a scintillation cocktail was added to measure the radioactivity using a Wallac® TriLux 1450 MicroBeta counter (PerkinElmer Life Sciences, Zaventem, Belgium). Once all fractions were collected, the filters holding the crude synaptosome samples were removed and dried overnight at room temperature. On the following day, the scintillation cocktail was added and the filters were counted to determine residual radioactivity.
# Compound-evoked release of neurotransmitters was calculated by subtracting the counts per minute (CPM) in the two basal fractions collected immediately prior to compound addition from those in the two fractions collected immediately following compound addition. The compound-evoked release was then expressed as a percentage of the basal release from that chamber. Potassium-evoked release was calculated by subtracting the CPM in the fraction immediately prior to KCl addition from the CPM in the […] immediately following potassium addition. Stimulated release was calculated as the percentage of basal release for that chamber. The increase in stimulated release above the baseline (no compound) release for that experimental run was determined, and the latter values were plotted on the graphs. Dose–response curves were determined using non-linear curve fitting in Prism (GraphPad Software, Inc, San Diego, CA, United States). All experiments were repeated at least three times.
# α3β4 nAChR = α3β4 nAChR (Homo sapiens, UniProt P30926+P32297); test: nAChR functional assay, automated patch-clamp; assay type: cell-based
# Procedure: The following selection antibiotics were used for the cell lines: G418 (0.25 mg/ml; Sigma-Aldrich) and Zeocin^TM (0.4 mg/ml; InvivoGen, San Diego, CA, United States) for α7/Ric3 nAChR and α3β4 nAChR cells; puromycin (8 μg/ml; InvivoGen) and hygromycin B (0.4 mg/ml; Gibco) for α4β2 nAChR cells; and G418 (0.5 mg/ml), puromycin (0.25 μg/ml), and hygromycin B (0.02 mg/ml) for α6/3β2/β3 nAChR cells. […] The human nAChRs were selected due to the lack of commercially available nAChR expression systems for mouse or zebrafish.
# Data were analyzed using the Patchmaster software and corrected for leak current. The data acceptance criteria were as follows: seal resistance >100 MΩ; seal resistance loss variation <50%; access resistance <20 MΩ; and minimum current amplitude elicited by maximal effect concentration acetylcholine >50 pA. Offline data analysis was performed in OpenOffice™ (v4.1.2; The Apache Software Foundation, Wakefield, MA, United States). […] Igor Pro (v6.2.2.2; WaveMetrics, Lake Oswego, OR, United States) or Prism (v8.2.1) were used for assessing the concentration–response curves.
# α4β2 nAChR = α4β2 nAChR (Homo sapiens, UniProt P17787+P43681); test: Radioligand displacement binding assay
# Procedure: All binding and functional assays for molecular target characterization were conducted by Eurofins Cerep SA (Celle-Lévescault, France) and Eurofins Panlabs Discovery Services Taiwan, Ltd. (New Taipei City, Taiwan) using their standard in vitro binding and functional assays (Supplementary Material S2). […] Negative values were considered to be an artifact arising from, for example, compounds interfering with the assay readout.
# The radioligand displacement binding assays employed the gold standard filtration method using membrane preparations from stable cell lines (HEK-293 or CHO cells) expressing human or rodent target proteins to determine the interaction of the compounds with specific receptors, channels, and transporters. For this purpose, the competitive binding of test compounds against a [^125I]- [^3H]-, or [^35S]-labelled agonist and/or antagonist was determined.
# Assay Source Ligand Conc. Kd Non Specific Incubation Detection Bibl.
# N neuronal α7 (h) SH-SY5Y cells [125I]α-bungarotoxin 0.05 nM 0.34 nM α-bungarotoxin 120 min Scintillation 347
# (antagonist radioligand) (human (1 µM) 37°C counting
# [3] = mean ± S.D., no effect = up to 33 μM
# Sequence of α3β4 nAChR (P32297 32-505): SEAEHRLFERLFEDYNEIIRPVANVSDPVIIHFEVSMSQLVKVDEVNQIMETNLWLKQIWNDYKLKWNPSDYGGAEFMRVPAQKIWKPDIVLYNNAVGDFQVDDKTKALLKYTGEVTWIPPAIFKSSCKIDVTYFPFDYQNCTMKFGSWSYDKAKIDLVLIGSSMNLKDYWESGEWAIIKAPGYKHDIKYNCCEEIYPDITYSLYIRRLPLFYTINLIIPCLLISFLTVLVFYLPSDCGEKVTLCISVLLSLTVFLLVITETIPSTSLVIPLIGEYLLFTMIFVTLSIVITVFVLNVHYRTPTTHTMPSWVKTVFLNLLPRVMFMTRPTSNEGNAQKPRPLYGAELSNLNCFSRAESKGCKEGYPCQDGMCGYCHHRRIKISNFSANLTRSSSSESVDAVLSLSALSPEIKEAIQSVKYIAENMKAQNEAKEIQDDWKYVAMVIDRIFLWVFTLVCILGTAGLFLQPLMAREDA
# Sequence of α3β4 nAChR (P30926 22-498): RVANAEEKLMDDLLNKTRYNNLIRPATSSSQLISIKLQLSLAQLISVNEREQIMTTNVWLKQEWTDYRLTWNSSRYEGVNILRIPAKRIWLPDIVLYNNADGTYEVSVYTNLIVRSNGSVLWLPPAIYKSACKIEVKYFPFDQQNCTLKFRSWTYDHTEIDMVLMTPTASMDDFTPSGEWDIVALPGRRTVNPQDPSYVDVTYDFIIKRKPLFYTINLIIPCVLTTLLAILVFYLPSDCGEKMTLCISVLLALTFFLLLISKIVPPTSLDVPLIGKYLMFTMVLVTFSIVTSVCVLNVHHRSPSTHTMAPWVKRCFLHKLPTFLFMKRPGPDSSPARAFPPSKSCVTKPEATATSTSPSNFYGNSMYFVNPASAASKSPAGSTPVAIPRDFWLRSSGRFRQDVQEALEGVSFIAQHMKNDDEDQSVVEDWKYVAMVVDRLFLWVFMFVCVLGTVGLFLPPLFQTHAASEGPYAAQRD
# Sequence of α4β2 nAChR (P43681 29-627 limits assumed): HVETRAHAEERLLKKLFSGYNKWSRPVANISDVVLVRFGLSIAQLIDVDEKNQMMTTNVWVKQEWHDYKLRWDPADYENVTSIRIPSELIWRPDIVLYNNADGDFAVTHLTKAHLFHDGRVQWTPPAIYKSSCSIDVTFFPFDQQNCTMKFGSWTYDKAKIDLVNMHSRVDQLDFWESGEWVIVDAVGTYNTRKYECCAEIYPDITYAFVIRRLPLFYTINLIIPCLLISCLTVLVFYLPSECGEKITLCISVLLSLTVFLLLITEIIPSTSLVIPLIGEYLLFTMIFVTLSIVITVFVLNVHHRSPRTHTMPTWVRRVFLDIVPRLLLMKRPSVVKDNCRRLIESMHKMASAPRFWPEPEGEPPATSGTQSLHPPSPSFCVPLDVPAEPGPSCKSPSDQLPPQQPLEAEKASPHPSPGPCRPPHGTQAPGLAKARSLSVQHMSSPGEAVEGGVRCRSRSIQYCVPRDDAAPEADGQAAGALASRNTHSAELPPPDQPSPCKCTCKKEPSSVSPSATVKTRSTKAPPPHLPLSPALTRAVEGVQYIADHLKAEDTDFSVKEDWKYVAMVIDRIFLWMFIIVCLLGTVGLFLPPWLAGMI
# Sequence of α4β2 nAChR (P17787 26-502): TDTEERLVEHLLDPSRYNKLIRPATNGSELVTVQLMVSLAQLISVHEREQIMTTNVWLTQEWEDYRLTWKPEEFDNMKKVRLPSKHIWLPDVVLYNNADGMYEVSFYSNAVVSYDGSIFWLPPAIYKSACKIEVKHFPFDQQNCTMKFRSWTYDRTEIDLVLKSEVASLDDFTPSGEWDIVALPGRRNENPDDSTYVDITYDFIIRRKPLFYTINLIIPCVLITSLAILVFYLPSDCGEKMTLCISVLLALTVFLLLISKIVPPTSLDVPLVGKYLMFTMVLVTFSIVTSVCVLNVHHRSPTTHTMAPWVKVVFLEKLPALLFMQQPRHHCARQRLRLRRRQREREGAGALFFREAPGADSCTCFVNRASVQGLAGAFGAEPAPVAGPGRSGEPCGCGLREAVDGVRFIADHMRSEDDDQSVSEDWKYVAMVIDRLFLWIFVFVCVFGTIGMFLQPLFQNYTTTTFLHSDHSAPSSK
smiles,measurement,setting,value
"CN1CCC[C@H]1c1cccnc1 [Nicotine, (-)-Nicotine]",plasma concentration,[1],5 to 6 µM
same,EC50,[2]; hippocampal synaptosomes,4.22 µM
"C1=CCC(c2cccnc2)NC1 (racemic) [Anatabine, (±)-Anatabine]",EC50,α3β4 nAChR; [3],70.6 ± 8.2 µM
same,"% of the full receptor activity, α3β4 nAChR","α3β4 nAChR; preliminary, data not shown",~40%
same,increase in norepinephrine release,[2]; at the higher doses,~20%
"CN1C(=O)CC[C@H]1c1cccnc1 [Cotinine, (-)-cotinine]",α3β4 nAChR EC50 in µM,α3β4 nAChR; [3],no detectable activities; also recorded: No effect *
same,binding for α4β2 nAChR,α4β2 nAChR,barely detectable
